In ChEMBL document CHEMBL5506020 (J Med Chem, 2024):
The source made the active and inactive calls.

Legend:
[1] = tested on: MV4-11; experiment: Downregulation of IRF4 protein in human MV4-11 cells at 10 nM incubated for 6 hrs by proteomic analysis; type: functional, cell-based
[2] = tested on: MV4-11; experiment: Downregulation of TRIM24 protein level in human MV4-11 cells at 10 nM incubated for 6 hrs by proteomic analysis; type: functional, cell-based
[3] = tested on: MV4-11; experiment: Downregulation of BRD3 protein level in human MV4-11 cells at 10 nM incubated for 6 hrs by proteomic analysis; type: functional, cell-based
[4] = tested on: MV4-11; experiment: Downregulation of CDK5 protein in human MV4-11 cells at 10 nM incubated for 6 hrs by proteomic analysis; type: functional, cell-based
[5] = Toxicity in NOD/SCID mouse xenografted with human MV4-11 cells assessed as effect on lung at 5 mg/kg, ip administered every other day for 2 weeks by H and E staining based assay; type: organism-based; details: in vivo, 336 h
[6] = tested on: KG-1; experiment: Antiproliferative activity against human KG-1 cells upto 10 uM; type: functional, cell-based
[7] = tested on: MV4-11; experiment: Downregulation of STAT2 protein in human MV4-11 cells at 10 nM incubated for 6 hrs by proteomic analysis; type: functional, cell-based
[8] = tested on: MOLM-13; experiment: Downregulation of c-Myc protein level in human MOLM-13 cells at 50 nM incubated for 24 hrs by Western blotting analysis; type: functional, cell-based
[9] = tested on: MV4-11; experiment: Antiproliferative activity against human MV4-11 cells incubated for 120 hrs by Cell-Titer Glo assay; details: MV4-11, 120 h
[10] = tested on: MV4-11; experiment: Downregulation of BRD4 protein level in human MV4-11 cells at 10 nM incubated for 6 hrs by proteomic analysis; type: functional, cell-based
[11] = tested on: MV4-11; experiment: Downregulation of c-Myc protein level in human MV4-11 cells at 50 nM incubated for 24 hrs by Western blotting analysis; type: functional, cell-based
[12] = tested on: MV4-11; experiment: Downregulation of IKZF1 level in human MV4-11 cells at 10 uM incubated for 6 hrs by Western blotting analysis; type: functional, cell-based
[13] = tested on: MV4-11; experiment: Downregulation of ZFP91 protein level in human MV4-11 cells at 10 nM incubated for 6 hrs by proteomic analysis; type: functional, cell-based
[14] = tested on: MV4-11; experiment: Downregulation of CBP mRNA level in human MV4-11 cells at 100 nM incubated for 6 hrs by qRT-PCR analysis; type: functional, cell-based
[15] = Toxicity in NOD/SCID mouse xenografted with human MV4-11 cells assessed as effect on kidney at 5 mg/kg, ip administered every other day for 2 weeks by H and E staining based assay; type: organism-based; details: in vivo, 336 h
[16] = tested on: EOL1; experiment: Antiproliferative activity against human EOL1 cells upto 10 uM; type: functional, cell-based
[17] = Toxicity in NOD/SCID mouse xenografted with human MV4-11 cells assessed as lymphocyte infiltration in liver at 5 mg/kg, ip administered every other day for 2 weeks by H and E staining based assay; type: organism-based; details: in vivo, 336 h
[18] = tested on: MV4-11; experiment: Downregulation of p300 protein level in human MV4-11 cells assessed as fold decrease at 10 nM incubated for 6 hrs by proteomic blotting analysis; type: functional, cell-based
[19] = tested on: MV4-11; experiment: Downregulation of BRD2 protein level in human MV4-11 cells at 10 nM incubated for 6 hrs by proteomic analysis; type: functional, cell-based
[20] = tested on: MV4-11; experiment: Downregulation of GSPT1 protein level in human MV4-11 cells at 10 nM incubated for 6 hrs by proteomic analysis; type: functional, cell-based
[21] = tested on: MV4-11; experiment: Antitumor activity against human MV4-11 cells xenografted in NOD-SCID mouse assessed as tumor growth inhibition at 5 mg/kg, ip administered every other day for 2 weeks; type: functional; details: MV4-11, 336 h, read-out: TGI
[22] = tested on: MV4-11; experiment: Downregulation of IKZF1 mRNA level in human MV4-11 cells at 100 nM incubated for 6 hrs by qRT-PCR analysis; type: functional, cell-based
[23] = tested on: MV4-11; experiment: Downregulation of STAT1 protein in human MV4-11 cells at 10 nM incubated for 6 hrs by proteomic analysis; type: functional, cell-based
[24] = Toxicity in NOD/SCID mouse xenografted with human MV4-11 cells assessed as aggregation of multinucleated giant cells in spleen at 5 mg/kg, ip administered every other day for 2 weeks by H and E staining based assay; type: organism-based; details: in vivo, 336 h
[25] = tested on: MV4-11; experiment: Downregulation of p300 mRNA level in human MV4-11 cells at 100 nM incubated for 6 hrs by qRT-PCR analysis; type: functional, cell-based
[26] = tested on: MV4-11; experiment: Downregulation of SMARCA4 protein level in human MV4-11 cells at 10 nM incubated for 6 hrs by proteomic analysis; type: functional, cell-based
[27] = Toxicity in NOD/SCID mouse xenografted with human MV4-11 cells assessed as effect on heart at 5 mg/kg, ip administered every other day for 2 weeks by H and E staining based assay; type: organism-based; details: in vivo, 336 h
[28] = tested on: MV4-11; experiment: Downregulation of KRAS protein in human MV4-11 cells at 10 nM incubated for 6 hrs by proteomic analysis; type: functional, cell-based
[29] = Toxicity in NOD/SCID mouse xenografted with human MV4-11 cells assessed as body weight loss at 5 mg/kg, ip administered every other day for 2 weeks; type: organism-based; details: in vivo, 336 h
[30] = tested on: MOLM-16; experiment: Downregulation of c-Myc protein level in human MOLM16 cells at 50 nM incubated for 24 hrs by Western blotting analysis; type: functional, cell-based
[31] = tested on: MOLM-13; experiment: Antiproliferative activity against human MOLM-13 cells incubated for 72 hrs by Cell-Titer Glo assay; details: MOLM-13, 72 h
[32] = tested on: MV4-11; experiment: Downregulation of TP53RK protein in human MV4-11 cells at 10 nM incubated for 6 hrs by proteomic analysis; type: functional, cell-based
[33] = tested on: THP-1; experiment: Antiproliferative activity against human THP-1 cells upto 10 uM; type: functional, cell-based
[34] = tested on: Mus musculus; experiment: In vivo induction of CBP degradation in NOD/SCID mouse tumor xenografted with human MV4-11 cells at 5 mg/kg, ip administered every other day for 2 weeks by immunoblotting analysis; type: functional, organism-based
[35] = Antiproliferative activity against human MOLM16 cells incubated for 72 hrs by Cell-Titer Glo assay; details: MOLM16, 72 h

Cc1noc(C)c1-c1ccc2c(c1)nc([C@@H]1CCCC(=O)N1c1ccc(F)c(F)c1)n2C1CCN(CC(=O)Nc2cnc(-c3ccc(CNc4cccc5c4C(=O)N(C4CCC(=O)NC4=O)C5=O)cc3)nc2)CC1 (stereo not given in full)
93%: inhibition in vivo at 5 mg/kg [21]
0.9 nM: IC50 [9]
Toxic: Activity [17] | Activity [24]
5.5 nM: IC50 [35]
Non-Toxic: Activity [5] | Activity [15] | Activity [27] | Activity [29]
active: Activity [1] | Activity [4] | Activity [7] | Activity [8] | Activity [11] | Activity [12] | Activity [22] | Activity [23] | Activity [28] | Activity [30] | Activity [32] | Activity [34]
inactive: Activity [2] | Activity [3] | Activity [6] | Activity [10] | Activity [13] | Activity [14] | Activity [16] | Activity [18] | Activity [19] | Activity [20] | Activity [25] | Activity [26] | Activity [33]
47 nM: IC50 [31]
